Measurements as given in patent publication US6903113B2, “Urea substituted imidazopyridines” (3M Innovative Properties Company, priority 2000, dated 2005).
Where a name gives a salt, the structure may show the parent alone.

Experiments:
[1] = test system: interferon (α); assay: Cytokine Induction in Human Cells: interferon (α) by ELISA; type: cell-based; conditions: human PBMC, 18 to 24 hours incubation, compounds generally tested at 30-0.014 μM; read-out: Lowest Effective Concentration Interferon
From the text: (§1) An in vitro human blood cell system is used to assess cytokine induction. Activity is based on the measurement of interferon and tumor necrosis factor (α) (IFN and TNF, respectively) secreted into culture media as described by Testerman et. al. In “Cytokine Induction by the Immunomodulators Imiquimod and S-27609”, Journal of Leukocyte Biology, 58, 365-372 (September, 1995).
(§2) Whole blood from healthy human donors is collected by venipuncture into EDTA vacutainer tubes. Peripheral blood mononuclear cells (PBMC) are separated from whole blood by density gradient centrifugation using Histopaque®-1077. Blood is diluted 1:1 with Dulbecco's Phosphate Buffered Saline (DPBS) or Hank's Balanced Salts Solution (HBSS). The PBMC layer is collected and washed twice with DPBS or HBSS and resuspended at 4×10^6 cells/mL in RPMI complete. The PBMC suspension is added to 48 well flat bottom sterile tissue culture plates (Costar, Cambridge, Mass. or Becton Dickinson Labware, Lincoln Park, N.J.) containing an equal volume of RPMI complete media containing test compound.
(§3) The compounds are solubilized in dimethyl sulfoxide (DMSO). The DMSO concentration should not exceed a final concentration of 1% for addition to the culture wells. The compounds are generally tested at concentrations ranging from 30-0.014 μM.
(§4) The solution of test compound is added at 60 μM to the first well containing RPMI complete and serial 3 fold dilutions are made in the wells. The PBMC suspension is then added to the wells in an equal volume, bringing the test compound concentrations to the desired range (30-0.014 μM). The final concentration of PBMC suspension is 2×10^6 cells/mL. The plates are covered with sterile plastic lids, mixed gently and then incubated for 18 to 24 hours at 37° C. in a 5% carbon dioxide atmosphere.
(§5) Following incubation the plates are centrifuged for 10 minutes at 1000 rpm (˜200×g) at 4° C. The cell-free culture supernatant is removed with a sterile polypropylene pipet and transferred to sterile polypropylene tubes. Samples are maintained at −30 to −70° C. until analysis. The samples are analyzed for interferon (α) by ELISA and for tumor necrosis factor (α) by ELISA or IGEN Assay
Interferon (α) concentration is determined by ELISA using a Human Multi-Species kit from PBL Biomedical Laboratories, New Brunswick, N.J. Results are expressed in pg/mL.
(§6) The table below lists the lowest concentration found to induce interferon and the lowest concentration found to induce tumor necrosis factor for each compound.

[2] = test system: tumor necrosis factor (α); assay: Cytokine Induction in Human Cells: tumor necrosis factor (α) by ELISA or IGEN Assay; type: cell-based; design: key to Lowest Effective Concentration Tumor Necrosis Factor: A “*” indicates that no induction was seen at any of the tested concentrations; conditions: human PBMC, 18 to 24 hours incubation, compounds generally tested at 30-0.014 μM; for minimal effective concentration: read-out: Lowest Effective Concentration Tumor Necrosis Factor
From the text: as §1, §2, §3, §4, §5
Tumor necrosis factor (α) (TNF) concentration is determined using ELISA kits available from Biosource International, Camarillo, Calif. Alternately, the TNF concentration can be determined by Origen® M-Series Immunoassay and read on an IGEN M-8 analyzer from IGEN International, Gaithersburg, Md. The immunoassay uses a human TNF capture and detection antibody pair from Biosource International, Camarillo, Calif. Results are expressed in pg/mL.
as §6

SMILES | melting point | minimal effective concentration [1] | minimal effective concentration [2] | Lowest Effective Concentration Tumor Necrosis Factor [2]
CCOCc1nc2c(N)nc(C)cc2n1CCCCNC(=O)N1CCOCC1 (as salt: salt) [Example 10, N-{4-[4-amino-2-(ethoxymethyl)-6-methyl-1H-imidazo[4,5-c]pyridin-1-yl]butyl}morpholin-4-ylcarboxamide] | 156.5 to 159.5 °C |  |  | 
CCCCc1nc2c(N)nc(C)c(C)c2n1CCCCNS(=O)(=O)c1ccc(F)cc1 (hydrate or solvate) [Example 3, N-[4-(4-Amino-2-butyl-6,7-dimethyl-1H-imidazo[4,5-c]pyridin-1-yl)butyl]-4-fluorobenzenesulfonamide Hydrate] | 133.1 to 133.7 °C |  |  | 
CCCCc1nc2c(N)nc(C)c(C)c2n1CCCCNC(=S)Nc1ccccc1 (hydrate or solvate) [Example 5, N-[4-(4-Amino-2-butyl-6,7-dimethyl-1H-imidazo[4,5-c]pyridin-1-yl)butyl]-N′-phenylthiourea Hydrate] | 160 to 160.8 °C |  |  | 
CCCCc1nc2c(N)nc(C)c(C)c2n1CCCCNS(C)(=O)=O [Example 2, N-[4-(4-Amino-2-butyl-6,7-dimethyl-1H-imidazo[4,5-c]pyridin-1-yl)butyl]methanesulfonamide] | 130 to 130.5 °C | 0.0046 µM | 0.01 µM | 
CCCCc1nc2c(N)nc(C)c(C)c2n1CCCCNC(=O)Nc1ccccc1 [Example 4, N-[4-(4-Amino-2-butyl-6,7-dimethyl-1H-imidazo[4,5-c]pyridin-1-yl)butyl]-N′-phenylurea] | 195.8 to 196.8 °C | 0.12 µM | 0.37 µM | 
CCCCc1nc2c(N)nc(C)c(C)c2n1CCCCNS(=O)(=O)N(C)C [Example 6, N′-[4-(4-Amino-2-butyl-6,7-dimethyl-1H-imidazo[4,5-c]pyridin-1-yl)butyl]-N,N-dimethylsulfamide] | 129.5 to 131 °C | 0.01 µM | 0.01 µM | 
Cc1nc(N)c2ncn(CCCCNC(=O)N3CCOCC3)c2c1C [Example 11, N-[4-(4-amino-6,7-dimethyl-1H-imidazo[4,5-c]pyridin-1-yl)butyl]morpholin-4-ylcarboxamide] | 163.7 to 167 °C |  |  | 
CCOCc1nc2c(N)nc(C)c(C)c2n1CCC1CCN(C(=O)N2CCOCC2)CC1 [Example 12, 2-(ethoxymethyl)-6,7-dimethyl-1-{2-[1-(morpholin-4-ylcarbonyl)piperidin-4-yl]ethyl}-1H-imidazo[4,5-c]pyridin-4-amine] | 158.1 to 160.5 °C |  |  | 
Cc1nc(N)c2nc(C)n(CCCNC(=O)N3CCOCC3)c2c1C [Example 13, N-[3-(4-amino-2,6,7-trimethyl-1H-imidazo[4,5-c]pyridin-1-yl)propyl]morpholin-4-ylcarboxamide] | 128.9 to 129.7 °C |  |  | 
CCOCc1nc2c(N)nc(C)c(C)c2n1CCCNC(=O)N1CCOCC1 [Example 14, N-{3-[4-amino-2-(ethoxymethyl)-6,7-dimethyl-1H-imidazo[4,5-c]pyridin-1-yl]propyl}morpholin-4-ylcarboxamide] | 140.5 to 142.2 °C |  |  | 
Cc1nc(N)c2nc(C)n(CCNC(=O)N3CCOCC3)c2c1C [Example 15, N-[2-(4-amino-2,6,7-trimethyl-1H-imidazo[4,5-c]pyridin-1-yl)ethyl]morpholin-4-ylcarboxamide] | 219 to 221 °C |  |  | 
CCOCc1nc2c(N)nc(C)cc2n1CCCCNC(=S)NC(=O)c1ccco1 [Example 53, N-{4-[4-amino-2-(ethoxymethyl)-6-methyl-1H-imidazo[4,5-c]pyridin-1-yl]butyl}-N′-(2-furoyl)thiourea] |  | 0.37 µM | 3.33 µM | 
CCOCc1nc2c(N)nc(C)c(C)c2n1CCC1CCN(C(=O)NC(C)C)CC1 [Example 54] |  | 1.11 µM | 3.33 µM | 
CCOCc1nc2c(N)nc(C)c(C)c2n1CCC1CCN(C(=O)NC(C)(C)C)CC1 [Example 55] |  | 3.33 µM | 10 µM | 
CCCCNC(=O)N1CCC(CCn2c(COCC)nc3c(N)nc(C)c(C)c32)CC1 [Example 56] |  | 1.11 µM | 3.33 µM | 
CCOCc1nc2c(N)nc(C)c(C)c2n1CCC1CCN(C(=O)Nc2ccccc2)CC1 [Example 57] |  | 0.37 µM | 1.11 µM | 

SMILES | melting point | minimal effective concentration [1] | minimal effective concentration [2] | Lowest Effective Concentration Tumor Necrosis Factor [2]
CCOCc1nc2c(N)nc(C)c(C)c2n1CCC1CCN(C(=O)NC2CCCCC2)CC1 [Example 58] |  | 0.37 µM | 3.33 µM | 
CCOCc1nc2c(N)nc(C)c(C)c2n1CCC1CCN(C(=O)NCC(=O)OCC)CC1 [Example 59] |  | 1.11 µM | 10 µM | 
CCOCc1nc2c(N)nc(C)c(C)c2n1CCC1CCN(C(=O)Nc2cccc(C#N)c2)CC1 [Example 60] |  | 0.37 µM | 1.11 µM | 
CCOCc1nc2c(N)nc(C)c(C)c2n1CCC1CCN(C(=O)Nc2cccc(OC)c2)CC1 [Example 61] |  | 0.37 µM | 1.11 µM | 
CCOCc1nc2c(N)nc(C)c(C)c2n1CCC1CCN(C(=O)Nc2cccc(C(C)=O)c2)CC1 [Example 62] |  | 0.37 µM | 1.11 µM | 
CCOCc1nc2c(N)nc(C)c(C)c2n1CCC1CCN(C(=O)Nc2ccc(N(C)C)cc2)CC1 [Example 63] |  | 0.014 µM | 1.11 µM | 
CCOCc1nc2c(N)nc(C)c(C)c2n1CCC1CCN(C(=O)Nc2cccc(SC)c2)CC1 [Example 64] |  | 0.37 µM | 1.11 µM | 
CCOCc1nc2c(N)nc(C)c(C)c2n1CCC1CCN(C(=O)Nc2ccc(OC)cc2OC)CC1 [Example 65] |  | 0.37 µM | 1.11 µM | 
CCOCc1nc2c(N)nc(C)c(C)c2n1CCC1CCN(C(=O)N2CCOCC2)CC1 [Example 66, 2-(ethoxymethyl)-6,7-dimethyl-1-{2-[1-(morpholin-4-ylcarbonyl)piperidin-4-yl]ethyl}-1H-imidazo[4,5-c]pyridin-4-amine] |  | 1.11 µM | 10 µM | 
CCOCc1nc2c(N)nc(C)c(C)c2n1CCC1CCN(C(=O)N(C)c2ccccc2)CC1 [Example 68, 4-{2-[4-amino-2-(ethoxymethyl)-6,7-dimethyl-1H-imidazo[4,5-c]pyridin-1-yl]ethyl}-N-methyl-N-phenylpiperidine-1-carboxamide] |  | 0.37 µM | 1.11 µM | 
CCOCc1nc2c(N)nc(C)c(C)c2n1CCC1CCN(C(=O)NS(=O)(=O)c2ccccc2)CC1 [Example 69] |  | 3.33 µM |  | *
CCOCc1nc2c(N)nc(C)c(C)c2n1CCC1CCN(C(=O)NS(=O)(=O)c2ccc(Cl)cc2)CC1 [Example 70] |  | 10 µM |  | *
CCOCc1nc2c(N)nc(C)c(C)c2n1CCC1CCN(C(=S)Nc2ccccc2)CC1 [Example 71] |  | 0.37 µM | 3.33 µM | 
CCOCc1nc2c(N)nc(C)c(C)c2n1CCC1CCN(C(=S)NCCc2ccccc2)CC1 [Example 72] |  | 0.37 µM | 1.11 µM | 
CCOCc1nc2c(N)nc(C)c(C)c2n1CCC1CCN(C(=S)Nc2ccc(OC)cc2)CC1 [Example 73] |  | 0.12 µM | 1.11 µM | 
CCOCc1nc2c(N)nc(C)c(C)c2n1CCC1CCN(C(=S)NC(=O)c2ccco2)CC1 [Example 74, N-[(4-{2-[4-amino-2-(ethoxymethyl)-6,7-dimethyl-1H-imidazo[4,5-c]pyridin-1-yl]ethyl}piperidin-1-yl)carbonothioyl]-2-furamide] |  | 0.37 µM | 1.11 µM | 
